Values belong to the compound of their own block, whether it stands above or below them. Active and inactive are the calls of the source.
How the values were obtained:
[1] = toxicity toward immortalized ovarian surface epithelium – cell-based, plate reader, dry powder samples, cytotoxicity control for PAX8 inhibitor project, dose response (AID 743045); format: functional
Paired box protein Pax-8 = Paired box protein Pax-8 (Homo sapiens, UniProt Q06710); test: PAX8 transcriptional activity inhibition in RMG-I – RMG-I cells, luciferase, cherry-pick, dose response (AID 687027); format: functional, cell-based;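 further: luciferase reporter driven by Pax8 target thyroperoxidase promoter measured by SteadyGlo luminescence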
[2] = OVCAR8 cell viability loss – plate reader, dry powder samples, PAX8 project, dose response (AID 743197); format: functional, cell-based; conditions: OVCAR-8
[3] = A2780 cell killing – plate reader, dry powder samples, cytotoxicity control, dose response (AID 743046); format: functional, cell-based
[4] = OVCAR-3 cell viability loss – plate reader, dry powder samples, PAX8 inhibitor project, dose response (AID 743044); format: functional, cell-based
[5] = IGROV1 cell killing – plate reader, dry powder samples, PAX8 inhibitor project, dose response (AID 743043); format: functional, cell-based; conditions: IGROV-1
[6] = viability loss in A549 lung cells – cell-based, 24 h, CellTiter-Glo luminescence, cherry-picks, cytotoxicity control, dose response (AID 1053115); format: functional; conditions: A549, 24 h
[7] = target: NAD-dependent protein deacylase sirtuin-5, mitochondrial (Homo sapiens, UniProt Q9NXA8); test: blockers of sirtuin-5 peptide desuccinylation – biochemical, fluorescence imaging, cherry-pick, set 6, dose response (AID 720597)
[8] = target: Glutathione-S-transferase (Schistosoma japonicum, UniProt Q26513); test: GST-antibody interaction or FRET quenching – biochemical, TR-FRET, artefact control for Vif-APOBEC3G degradation inhibitor project, dose response (AID 1117362); format: functional
[9] = inhibitors acting on PAX2 in cells – cell-based, plate reader, dry powder samples, selectivity assay for PAX8 inhibitor project, dose response (AID 743048); format: functional;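 further: HEK293 cells carrying a WT1 promoter luciferase reporter driven by expressed Pax2; potency is for inhibition of Pax2 driven reporter signal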
[10] = OVCAR4 cell viability loss – plate reader, dry powder, SA11, cytotoxicity control for PAX8 inhibitor project, dose response (AID 743150); format: functional, cell-based; conditions: OVCAR-4
[11] = COV362 cell viability loss – plate reader, dry powder, SA12, cytotoxicity control for PAX8 inhibitor project, dose response (AID 743144); format: functional, cell-based
[12] = PAX8-dependent cell viability loss – plate reader, dry powder, dose response (AID 743049); format: functional, cell-based
[13] = OV-90 cell viability loss – plate reader, dry powder, SA8, PAX8 inhibitor project, dose response (AID 743149); format: functional, cell-based
[14] = COV434 cell viability loss – plate reader, dry powder, SA7, cytotoxicity control for PAX8 inhibitor project, dose response (AID 743145); format: functional, cell-based
[15] = Counterscreen for inhibitors of Trypanosoma brucei methionyl tRNA synthetase (MetRS): Luminescence-based cell-based high throughput dose response assay to identify compounds that are cytotoxic to Jurkat human T lymphocyte cells.; format: functional
[16] = target: T1, Methionyl-tRNA synthetase, putative (Trypanosoma brucei brucei, UniProt Q38C91); format: functional, Trypanosoma brucei brucei strain 927/4 GUTat10.1
T1 sequence (Q38C91 whole entry): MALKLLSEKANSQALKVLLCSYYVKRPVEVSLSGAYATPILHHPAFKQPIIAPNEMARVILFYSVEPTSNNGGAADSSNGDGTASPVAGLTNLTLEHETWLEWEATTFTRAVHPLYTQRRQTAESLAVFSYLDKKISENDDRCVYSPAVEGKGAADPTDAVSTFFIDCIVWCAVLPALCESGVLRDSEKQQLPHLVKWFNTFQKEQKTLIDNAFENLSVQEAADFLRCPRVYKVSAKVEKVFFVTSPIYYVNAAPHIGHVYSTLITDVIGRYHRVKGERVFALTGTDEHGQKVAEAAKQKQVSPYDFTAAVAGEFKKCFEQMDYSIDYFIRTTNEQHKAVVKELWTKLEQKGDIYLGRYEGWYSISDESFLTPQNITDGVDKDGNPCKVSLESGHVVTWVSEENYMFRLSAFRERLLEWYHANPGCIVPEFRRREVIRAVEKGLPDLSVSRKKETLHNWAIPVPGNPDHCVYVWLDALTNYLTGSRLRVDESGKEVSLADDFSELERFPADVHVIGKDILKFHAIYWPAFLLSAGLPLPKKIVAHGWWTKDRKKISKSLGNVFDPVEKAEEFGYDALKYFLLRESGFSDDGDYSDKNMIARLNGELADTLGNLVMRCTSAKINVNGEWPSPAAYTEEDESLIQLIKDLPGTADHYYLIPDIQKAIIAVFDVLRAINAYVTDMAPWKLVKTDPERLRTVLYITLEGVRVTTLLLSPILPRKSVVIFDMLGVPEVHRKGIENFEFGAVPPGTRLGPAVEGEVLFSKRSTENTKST

[17] = target: T1, Methionyl-tRNA synthetase, putative; format: functional, Trypanosoma brucei brucei strain 927/4 GUTat10.1; remark: listed apart in the source
[18] = Late stage counterscreen for inhibitors of Trypanosoma brucei methionyl tRNA synthetase (MetRS): Luminescence-based cell-based high throughput dose response assay to identify compounds that are cytotoxic to Jurkat human T lymphocyte cells.; format: functional

Chain of Paired box protein Pax-8 (Q06710 whole entry): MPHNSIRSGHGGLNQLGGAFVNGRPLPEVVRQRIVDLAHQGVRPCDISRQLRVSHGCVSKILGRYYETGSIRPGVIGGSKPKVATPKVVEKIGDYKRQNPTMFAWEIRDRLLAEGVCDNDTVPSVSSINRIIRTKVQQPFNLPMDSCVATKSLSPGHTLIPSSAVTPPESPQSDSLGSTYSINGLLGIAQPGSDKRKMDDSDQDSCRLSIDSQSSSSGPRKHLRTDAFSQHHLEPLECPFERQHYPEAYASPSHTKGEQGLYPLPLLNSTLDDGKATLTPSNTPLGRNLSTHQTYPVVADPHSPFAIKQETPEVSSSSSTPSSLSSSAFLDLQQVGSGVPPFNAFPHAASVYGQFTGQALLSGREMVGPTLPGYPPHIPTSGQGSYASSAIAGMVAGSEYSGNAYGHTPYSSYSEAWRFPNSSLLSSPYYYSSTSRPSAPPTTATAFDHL
Chain of Glutathione-S-transferase (Q26513 whole entry): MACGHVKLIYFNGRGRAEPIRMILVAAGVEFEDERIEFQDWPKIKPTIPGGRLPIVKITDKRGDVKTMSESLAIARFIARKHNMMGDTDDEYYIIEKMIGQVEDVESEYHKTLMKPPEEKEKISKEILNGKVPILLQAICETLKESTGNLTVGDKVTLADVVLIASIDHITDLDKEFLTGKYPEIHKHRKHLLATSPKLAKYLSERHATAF
Chain of NAD-dependent protein deacylase sirtuin-5, mitochondrial (Q9NXA8 whole entry): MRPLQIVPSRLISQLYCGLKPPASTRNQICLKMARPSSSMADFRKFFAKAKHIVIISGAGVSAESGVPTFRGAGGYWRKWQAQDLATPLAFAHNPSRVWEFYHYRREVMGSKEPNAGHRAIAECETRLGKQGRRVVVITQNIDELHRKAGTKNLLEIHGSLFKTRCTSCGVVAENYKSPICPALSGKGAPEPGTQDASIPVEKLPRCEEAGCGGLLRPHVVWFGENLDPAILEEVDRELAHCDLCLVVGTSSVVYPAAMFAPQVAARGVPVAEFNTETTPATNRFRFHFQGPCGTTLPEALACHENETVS

Compound: Cc1ccc(S(=O)(=O)Nc2ccc3c(c2)C(=O)N([C@H](C)CO)C[C@H](C)[C@@H](CN(C)S(=O)(=O)c2ccc(C)cc2)OCCCC[C@H](C)O3)cc1
AC50 [1]: 23.6 µM (active) | AC50 (Paired box protein Pax-8): 5.76 µM (active) | AC50 [2]: > 70 µM (inactive) | AC50 [3]: 34.5 µM (active) | AC50 [4]: 18.5 µM (active) | AC50 [5]: 44.2 µM (active)

Compound: OC[C@@H]1Nc2ccc(-c3ccccc3)cc2[C@H]2[C@@H]1CCN2Cc1ccc(F)cc1
AC50 [6]: 47.6 µM (active)

AC50 [7]: > 30 µM (inactive)
Compound: O=C(C[C@H]1C[C@H]2c3cc(NC(=O)C4CCC4)ccc3O[C@H]2[C@H](CO)O1)NCCN1CCCCC1

Compound: COC(=O)/C(=N/Nc1ccccc1C)N1CCCc2ccccc21
IC50 [8]: 1.9 µM (active)

Compound: COc1cc(/C=C2\SC(=S)N(CCC(=O)N3CCCCC3)C2=O)cc(OC)c1OC
AC50 [9]: 69.6 µM (active) | AC50 [10]: 43 µM (active) | AC50 [11]: 31.2 µM (active) | AC50 [12]: 15 µM (active) | AC50 (Paired box protein Pax-8): 8.62 µM (active) | AC50 [3]: 26.3 µM (active) | AC50 [4]: 15.5 µM (active) | AC50 [13]: 35.9 µM (active) | AC50 [14]: 26.8 µM (active) | AC50 [5]: 13.1 µM (active)

Compound: O=C(NCc1nc2ccccc2[nH]1)C1=C[C@H](C2CC2)C[C@H](OCc2ccc(CO)cc2)O1
IC50 [15]: 83.3 µM (inactive) | IC50 [16]: 8.95 µM (active) | IC50 [17]: 3.68 µM (active) | IC50 [18]: > 83.3 µM (inactive)

Source: ChEMBL document CHEMBL1201862, “PubChem BioAssay data set” (2004)
